From patent US7825128B2, “Sulfoximine-substituted pyrimidines, processes for production thereof and use thereof as drugs” (Bayer Schering Pharma AG, priority 2005, dated 2010) come the findings set out here.

Holding throughout (type): biochemical
In experiment [1] the target is T1, Aurora-C (Homo sapiens, UniProt Q9UQB9).
T1 construct: made in house; host or cells: transiently transfected HEK293 cells
T1 sequence (Q9UQB9 1-309): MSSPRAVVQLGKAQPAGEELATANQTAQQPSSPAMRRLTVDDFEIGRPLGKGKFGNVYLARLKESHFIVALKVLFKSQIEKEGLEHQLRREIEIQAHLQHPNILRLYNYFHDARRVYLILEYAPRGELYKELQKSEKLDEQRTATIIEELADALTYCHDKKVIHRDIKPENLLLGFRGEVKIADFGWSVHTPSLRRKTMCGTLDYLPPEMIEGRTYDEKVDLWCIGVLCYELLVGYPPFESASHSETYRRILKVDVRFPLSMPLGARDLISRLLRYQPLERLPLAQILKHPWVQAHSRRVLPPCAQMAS
Description: Aurora-C kinase assay. The settings on record: 3 μM ATP. The procedure: Recombinant Aurora-C Protein was expressed in transiently transfected HEK293 cells and then purified. As the kinase substrate, the biotinylated peptide with the amino acid sequence biotin-FMRLRRLSTKYRT, which was purchased from the company Jerini AG in Berlin, was used.
Aurora-C [5 nM in the test mixture, test volume 5 μl] was incubated for 90 mins at 22° C. in the presence of different concentrations of test substances (0 μM, and 10 data points within the range 0.001-20 μM in duplicate values) in assay buffer [25 mM HEPES pH 7.4, 0.5 mM MnCl2, 0.1 mM Na orthovanadate, 2.0 mM dithiothreitol, 0.05% bovine serum albumin (BSA), 0.01% Triton X-100, 3 μM adenosine trisphosphate (ATP), 0.67 nCi/μl gama-P33-ATP, 2.0 μM substrate peptide biotin-FMRLRRLSTKYRT, 1.0% dimethylsulfoxide]. The reaction was stopped by addition of 12.5 μl of an EDTA/detection solution [16 mM EDTA, 40 mM ATP, 0.08% Triton X-100, 4 mg/ml PVT-streptavidin-SPA beads (Amersham Co.)]. After 10 minutes' incubation, the SPA beads were pelleted by 10-minute centrifugation at 1000×G. The measurement was performed in a Topcount scintillation meter from the Perkin Elmer company. […] The IC50 values were determined by a 4-parameter fit using in-house software. […]

For experiment [2], the target named is T2, CDK2/CycE (Homo sapiens, UniProt P24941).
T2 construct: GST; purchased ProQinase GmbH, Freiburg; host or cells: Baculovirus-infected Sf9 insect cells
Kind of experiment: CDK2/CycE kinase assay. The settings on record: 0.5 μM ATP, Histone IIIS substrate. The procedure: Recombinant CDK2- and CycE-GST fusion proteins, purified from Baculovirus-infected insect cells (Sf9), were purchased from ProQinase GmbH, Freiburg. Histone IIIS, which was used as the kinase substrate, was purchased from the Sigma Co.
CDK2/CycE (50 ng/data point) was incubated for 10 mins at 22° C. in the presence of different concentrations of test substances (0 μM, and within the range 0.01-100 μM) in assay buffer [50 mM tris/HCl pH8.0, 10 mM MgCl2, 0.1 mM Na orthovanadate, 1.0 mM dithiothreitol, 0.5 μM ATP, 10 μg/data point Histone IIIS, 0.2 μCi/data point ^33P-gamma ATP, 0.05% NP40, 1.25% dimethylsulfoxide]. The reaction was stopped by addition of EDTA solution (250 mM, pH8.0, 15 μl/data point).
15 μl of each reaction mixture was applied onto P30 filter strips (Wallac Co.), and non-incorporated ^33P-ATP was removed by washing the filter strips three times, for 10 mins each time, in 0.5% phosphoric acid. After drying of the filter strips for 1 hour at 70° C., the filter strips were covered with scintillator strips (MeltiLex™ A, Wallac Co.) and baked for 1 hour at 90° C. The quantity of incorporated ^33P (substrate phosphorylation) was determined by scintillation measurement in a gamma radiation meter (Wallac).

The target of experiment [3] is T3, Tie-2 (Homo sapiens, UniProt Q02763).
T3 construct: consisting of GST and the intracellular domain of Tie-2; made in house; host or cells: insect cells (Hi-5)
Kind of experiment: Tie-2 kinase assay without prior activation of the kinase. The settings on record: 10 μM ATP. The text has this:
For the kinase assay, a recombinant fusion protein expressed in insect cells (Hi-5) and purified by glutathione-sepharose affinity chromatography, consisting of GST and the intracellular domain of Tie-2, was used. Alternatively, commercially available GST-Tie2 fusion protein (Upstate Biotechnology, Dundee, Scotland) can be used. As the substrate for the kinase reaction, the biotinylated peptide biotin-Ahx-EPKDDAYPLYSDFG (C-terminus in amide form), which can be acquired e.g. from the company Biosyntan GmbH (Berlin-Buch, Germany) was used. […]
The resulting mixture was incubated for 1 hr at 22° C. in order to allow the binding of the biotinylated phosphorylated peptide to the streptavidin-XLent and the PT66-Eu-chelate. After this, the quantity of the phosphorylated substrate peptide was determined by measurement of the resonance energy transfer from the PT66-Eu chelate to the streptavidin-XLent. For this purpose, the fluorescence emission at 620 nm and 665 nm after excitation at 350 nm was measured in a HTRF meter, e.g. Rubystar (BMG Labtechnologies, Offenburg, Germany) or Viewlux (Perkin-Elmer). The ratio of the emissions at 665 nm and at […] was used as a measure of the quantity of the phosphorylated substrate peptide. […]

T3 sequence (Q02763 770-1124 limits assumed, species assumed): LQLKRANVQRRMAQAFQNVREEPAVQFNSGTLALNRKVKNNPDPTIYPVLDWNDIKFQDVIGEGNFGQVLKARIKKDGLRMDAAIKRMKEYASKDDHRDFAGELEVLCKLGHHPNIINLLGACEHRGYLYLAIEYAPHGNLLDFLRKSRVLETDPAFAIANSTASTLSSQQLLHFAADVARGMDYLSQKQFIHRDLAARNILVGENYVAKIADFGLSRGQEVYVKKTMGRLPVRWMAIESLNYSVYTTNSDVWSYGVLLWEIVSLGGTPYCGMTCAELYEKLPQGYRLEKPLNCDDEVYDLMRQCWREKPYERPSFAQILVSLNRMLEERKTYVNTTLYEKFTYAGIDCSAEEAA

What is called IC50 is the point on the concentration scale where inhibition reaches its midpoint. In experiment [1], `CCOC(=O)N=S(C)(=O)c1ccc(Nc2ncc(-c3cccs3)c(N[C@H](C)CO)n2)cc1` (mixture of isomers) [Example 1.1, (RS)—N-(ethoxycarbonyl)-S-(4-{[4-{[(R)-2-hydroxy-1-methylethyl]amino}-5-(2-thienyl)pyrimidine-2-yl]amino}phenyl)-S-methylsulfoximide] yielded an IC50 of 2 µM.

In turn, `CCS(=N)(=O)c1ccc(Nc2ncc(-c3ccsc3)c(N[C@H](CO)CC(C)C)n2)cc1` (mixture of isomers) [Example 5.3, (RS)—S-ethyl-S-(4-{[4-{[(S)-1-(hydroxymethyl)-3-methylbutyl]amino}-5-(3-thienyl)pyrimidine-2-yl]amino}phenyl)sulfoximide] displayed an IC50 in experiment [2] of 3 µM.

On to `CC[C@H](CO)Nc1nc(Nc2ccc(S(C)(=N)=O)c(Br)c2)ncc1-c1cccs1` (mixture of isomers) [Example 5.5, (RS)—S-{2-bromo-4-[(4-{[(R)-1-(hydroxymethyl)propyl]amino}-5-(2-thienyl)-pyrimidine-2-yl)amino]phenyl}-S-methylsulfoximide], for which the IC50 in experiment [3] was found to be 3 µM.
